Data reported in US20250011484A1, “METHODS FOR PREPARING METALLOCENE COMPOUNDS” (Chevron Phillips Chemical Company LP, priority 2023, published 2025).

Legend:
[1] = Solubility of metallocenes in 1-decene; format: physicochemical; settings: ambient temperature (21° C.), visual inspection for solids or haze
Procedure: Additional portions of the desired metallocenes were then added in increments of 3-4 mg and the mixture was allowed to stir for 30 minutes after each addition at ambient temperature (21° C.). The resulting mixtures were visually inspected for solids or significant haze. Metallocenes were considered soluble if significant haze or solids were not observed.

[2] = Metallocene-catalyzed oligomerization of 1-decene; settings: 1-decene 675 g, 110° C., 1 hour, 5 mg metallocene, CTSO, TIBA, hydrogen
Procedure: Metallocene-catalyzed oligomerizations were performed using MET-A and MET-D as follows. Generally, 1-decene was oligomerized to an oligomer product of dimers, trimers, and tetramers in the presence of MET-A or MET-D, as noted in Table II below. For Examples 8-9, a 1-gallon batch reactor was charged with 675 g of 1-decene. A syringe was charged with CTSO (0.750 g), TIBA (1.3 mL of a 1.0 M hexane solution), and metallocene (5 mg). The chemically treated solid oxide (CTSO) was a fluorided silica-coated alumina (60:40 alumina:silica by weight) containing 4 wt. % F and having a d50 average particle size of 35 microns, a BET surface area of 450 m^2/g, and a pore volume of 1.1 mL/g. The catalyst mixture was shaken to mix and was then charged to the reactor under a nitrogen purge. The reactor was heated to 110° C. while stirring at 600-900 rpm. […]
The reaction mixture was then filtered and analyzed by gas chromatography to determine the yield of oligomer product formed in the reaction mixture, and to determine the relative amount of certain oligomers within the oligomer product (e.g., the trimer:tetramer weight ratio). […]
The distribution of olefin end groups was determined using ^1H NMR on a Bruker 300 MHz NMR. Spectra were recorded in CDCl3 and are reported relative to SiMe4 as determined by reference to the residual ^1H solvent peak. […]

[3] = Ethylene/1-hexene polymerization with metallocene catalyst compositions
Procedure: Polymerization experiments employing catalyst compositions comprising MET-A, MET-B, MET-C, MET-D, MET-E, and MET-F were conducted as follows. Unless otherwise indicated, the polymerization experiments used in the following examples were conducted for […] in a one-gallon (3.8 L) stainless-steel autoclave reactor containing isobutane as diluent. A syringe was charged with 250 mg solid activator-support, 2 mL hexane, 0.5 mL of 1M TIBA (in hexane) and 2.0 mg metallocene (MET-A, MET-B, MET-C, MET-D, MET-E, or MET-F, as noted in Tables III and IV) in that order. The slurry was charged to the reactor under an isobutane purge. The reactor was sealed, charged with 2 L of isobutane, and heated to 80° C. Ethylene was charged to the reactor and fed on demand to maintain the target pressure of 320 psig (2.2 MPa). The reactor was maintained at the target temperature throughout the experiment by an automated heating-cooling system. After venting of the reactor, purging, and cooling, the resulting polymer product was dried under reduced pressure. For Examples 40-41, the polymerization temperature was 90° C., and ethylene pressure was maintained at 390 psig ethylene, with a 1-hexene feed ratio of 20 wt. % vs. ethylene.

Compound	Solubility [1]	Activity [2]	Support Activity ([3]; 1-hexene 7.5 g, 80° C., 320 psig, 30 min, isobutane, TIBA)	Support Activity ([3]; 1-hexene 12 g, 80° C., 320 psig, 30 min, isobutane, TIBA)	Support Activity ([3]; 1-hexene 17.5 g, 80° C., 320 psig, 30 min, isobutane, TIBA)	Support Activity ([3]; 1-hexene 30 g, 80° C., 320 psig, 30 min, isobutane, TIBA)	Support Activity ([3]; Table IV, 1-hexene 49 g, 90° C., 390 psig ethylene, 1-hexene feed ratio 20 wt. %)	Support Activity ([3]; Table IV, 1-hexene 51 g, 90° C., 390 psig ethylene, 1-hexene feed ratio 20 wt. %)
Fc1c(F)c(F)c(C[c-]2ccc3ccccc32)c(F)c1F.[Cl-].[Cl-].[Zr+4].c1cc[cH-]c1 (stereo not drawn) [MET-A]	<0.1 wt. %	75,060 g/(g*h)	1,920 g/(g*h)	1,776 g/(g*h)	1,872 g/(g*h)	2,144 g/(g*h)	2937 g/g/h	–
CCCC[c-]1cccc1.Fc1c(F)c(F)c(C[c-]2ccc3ccccc32)c(F)c1F.[Cl-].[Cl-].[Zr+4] (stereo not drawn) [MET-G]	0.4 wt. %	–	–	–	–	–	–	1392 g/g/h
